Tests used:
Format in all cases: cell-based, human
[1] = system: A431 cells of skin cancer; experiment: transwell migration test; settings: dose 10 (μM), 24 h
Description: (§1) Inoculate SCC4 cells of head and neck cancer, SW579 cells of thyroid cancer, A549 cells of lung cancer, TE13 cells of esophageal squamous cell carcinoma, MGC803 cells of stomach cancer, MDA-MB-231 cells of breast cancer, UOK262 cells of kidney cancer, and A431 cells of skin cancer of human to transwell cells, 100 μL per well, and meanwhile add micropeptides HMMW I to IX at different doses to every cell. Add 0.6 mL of complete medium containing 10% FBS to the transwell cells to stimulate cell migration, and culture in 5% CO2 at 37 DEG C. for 24 h. Discard the medium in the wells, fix with 90% alcohol at room temperature for 30 min, stain with 0.1% crystal violet at room temperature for 10 min, rinse with clear water, gently wipe off the non-migrated cells in the upper layer with a cotton swab, observe under a microscope and select four fields of view to take pictures and count. Calculate the migration inhibition rate (MIR) of the cells according to the following formula: […]
(§2) The test was repeated independently three times. Mean±SD was calculated based on the test results. Statistical t test was done. Here, “the test was repeated independently three times” means that every dose of any type of cells was tested repeatedly three times, and then the above formula was used to calculate the number of migrated cells (Mean±SD). Value P was used to express statistical difference. The statistical significance of the results is a method for estimating how true the results are (the totality can be represented), *P<0.05 means significant difference, and **P<0.01 means very significant difference.

[2] = system: A549 cells of lung cancer; experiment: transwell migration test; settings: dose 10 (μM), 24 h
Description: as §1, §2

[3] = system: MDA-MB-231 cells of breast cancer; experiment: transwell migration test; settings: dose 10 (μM), 24 h
Description: as §1, §2

[4] = system: MGC803 cells of stomach cancer; experiment: transwell migration test; settings: 24 h
Description: as §1, §2

[5] = system: SCC4 cells of head and neck cancer; experiment: transwell migration test; settings: dose 10 (μM), 24 h
Description: as §1, §2

[6] = system: SW579 cells of thyroid cancer; experiment: transwell migration test; settings: dose 10 (μM), 24 h
Description: as §1, §2

[7] = system: TE13 cells of esophageal squamous cell carcinoma; experiment: transwell migration test; settings: dose 10 (μM), 24 h
Description: as §1, §2

[8] = system: UOK262 cells of kidney cancer; experiment: transwell migration test; settings: dose 10 (μM), 24 h
Description: as §1, §2

[9] = system: A431 cells of skin cancer; experiment: Matrigel transwell invasion test; settings: dose 10 (unit not given), 24 h
Description: (§3) Dilute 10 mg/mL Matrigel with culture medium at 1:3, spread it on membranes of transwell cells and dry it in the air at room temperature. Use trypsin to digest and collect SCC4 cells of head and neck cancer, SW579 cells of thyroid cancer, A549 cells of lung cancer, TE13 cells of esophageal squamous cell carcinoma, MGC803 cells of stomach cancer, MDA-MB-231 cells of breast cancer, UOK262 cells of kidney cancer, and A431 cells of skin cancer of human, which were cultured to the logarithmic phase, wash with PBS twice and re-suspend with a blank culture medium. Adjust cell concentration to 1×10^5 cells/mL. Inoculate the cells to transwell cells, 100 μL per well, and meanwhile add micropeptides HMMW I to IX at different doses to every cell. Add 0.6 mL of complete medium containing 10% FBS to the transwell cells to stimulate cell invasion, and culture in 5% CO2 at 37 DEG C. for 24 h. Discard the medium in the wells, fix with 90% alcohol at room temperature for 30 min, stain with 0.1% crystal violet at room temperature for 10 min, rinse with clear water, gently wipe off the non-invaded cells in the upper layer with a cotton swab, observe under a microscope and select four fields of view to take pictures and count. Calculate the invasion inhibition rate (IIR) of the cells according to the following formula:
(§4) [formula] where Ntest is the number of invaded cells in the test groups (the groups at a dose of 1, 4 or 16 μM in the table), Ncontrol is the number of invaded cells in the blank control groups (the groups at a dose of 0 μM in the table). The test was repeated independently three times. Mean±SD was calculated based on the test results. Statistical t test was done. Value P was used to express statistical difference. The statistical significance of the results is a method for estimating how true the results are (the totality can be represented), *P<0.05 means significant difference, and **P<0.01 means very significant difference.

[10] = system: A549 cells of lung cancer; experiment: Matrigel transwell invasion test; settings: dose 10 (unit not given), 24 h
Description: as §3, §4

[11] = system: MDA-MB-231 cells of breast cancer; experiment: Matrigel transwell invasion test; settings: dose 10 (unit not given), 24 h
Description: as §3, §4

[12] = system: MGC803 cells of stomach cancer; experiment: Matrigel transwell invasion test; settings: dose 10 (unit not given), 24 h
Description: as §3, §4

[13] = system: SCC4 cells of head and neck cancer; experiment: Matrigel transwell invasion test; settings: dose 10 (unit not given), 24 h
Description: as §3, §4

[14] = system: SW579 cells of thyroid cancer; experiment: Matrigel transwell invasion test; settings: dose 10 (unit not given), 24 h
Description: as §3, §4

[15] = system: TE13 cells of esophageal squamous cell carcinoma; experiment: Matrigel transwell invasion test; settings: dose 10 (unit not given), 24 h
Description: as §3, §4

[16] = system: UOK262 cells of kidney cancer; experiment: Matrigel transwell invasion test; settings: dose 10 (unit not given), 24 h
Description: as §3, §4

[17] = system: A431 cells of skin cancer; experiment: cells; settings: Homo sapiens, A-431, dose 10 μg/ml, 48 h, positive control, read-out: proliferation inhibition rate
Description: (§5) After SCC4 cells of head and neck cancer, SW579 cells of thyroid cancer, A549 cells of lung cancer, TE13 cells of esophageal squamous cell carcinoma, MGC803 cells of stomach cancer, MDA-MB-231 cells of breast cancer, UOK262 cells of kidney cancer and A431 cells of skin cancer of human were cultured in a 37 DEG C. 5% CO2 incubator until the density was 90%, they were digested and collected by trypsin, the cells were re-suspended in a culture solution and counted under a microscope, the concentration of the cells was adjusted to 3.0×10^4 cells/mL, and the cell suspension was inoculated to 96-well plates, 100 μL per well, and cultured in a 37 DEG C. 5% CO2 incubator overnight. After the cells were completely adherent, different doses of micropeptides HMMW I to IX were added as drug groups, taxol was used as a positive control group, and the culture solution without any drug was used as a blank control group. They were diluted with the culture solution till predetermined concentrations. The diluted solutions were added to 96-well plates, respectively, 100 μL per well, and incubated in a 37 DEG C. 5% CO2 incubator for 48 h. 20 μL of 5 mg/mL MTT was added to each well of the 96-well plates, and the culture was continued for 4 h. The culture medium was sucked away, and 100 μL of DMSO was added to each well for dissolution. Absorbance was detected by ELIASA at detection wavelength 570 nm and reference wavelength 630 nm, and proliferation inhibition (PI) was calculated according to Formula PI (%)=1−drug group/negative group. The test was independently repeated three times. The results obtained from the test were expressed with mean±SD and statistical t test was done. *P<0.05 means significant difference, and **P<0.01 means very significant difference.

[18] = system: A549 cells of lung cancer; experiment: cells; settings: Homo sapiens, dose 10 μg/ml, 48 h, positive control, read-out: proliferation inhibition rate
Description: as §5

[19] = system: MDA-MB-231 cells of breast cancer; experiment: cells; settings: Homo sapiens, dose 10 μg/ml, 48 h, positive control, read-out: proliferation inhibition rate
Description: as §5

[20] = system: MGC803 cells of stomach cancer; experiment: cells; settings: Homo sapiens, MGC-803, dose 10 μg/ml, 48 h, positive control, read-out: proliferation inhibition rate
Description: as §5

[21] = system: SCC4 cells of head and neck cancer; experiment: cells; settings: Homo sapiens, SCC-4, dose 10 μg/ml, 48 h, positive control, read-out: proliferation inhibition rate
Description: as §5

[22] = system: SW579 cells of thyroid cancer; experiment: cells; settings: Homo sapiens, dose 10 μg/ml, 48 h, positive control, read-out: proliferation inhibition rate
Description: as §5

[23] = system: TE13 cells of esophageal squamous cell carcinoma; experiment: cells; settings: Homo sapiens, dose 10 μg/ml, 48 h, positive control, read-out: proliferation inhibition rate
Description: as §5

[24] = system: UOK262 cells of kidney cancer; experiment: cells; settings: Homo sapiens, UOK 262, dose 10 μg/ml, 48 h, positive control, read-out: proliferation inhibition rate
Description: as §5

Q: How did the migration inhibition rate [1] turn out when “Avastin: comparison group in the migration and invasion tables; not described in the text [reference compound]” was run?
A: Its migration inhibition rate is 64.63%.

Q: And the migration inhibition rate [2]?
A: The migration inhibition rate was 66.21%.

Q: What about the migration inhibition rate [3] of the same compound?
A: Its migration inhibition rate is 62.19%.

Q: What about the migration inhibition rate [4] of the same compound?
A: The migration inhibition rate was 71.25%.

Q: What about the migration inhibition rate [5] of the same compound?
A: The migration inhibition rate was 68.64%.

Q: What about the migration inhibition rate [6] of the same compound?
A: The migration inhibition rate was 59.81%.

Q: What about the migration inhibition rate [7] of the same compound?
A: Its migration inhibition rate is 58.19%.

Q: And the migration inhibition rate [8]?
A: The migration inhibition rate was 61.39%.

Q: What about the invasion inhibition rate [9] of the same compound?
A: The invasion inhibition rate was 70.39%.

Q: And the invasion inhibition rate [10]?
A: Its invasion inhibition rate is 61.35%.

Q: What about the invasion inhibition rate [11] of the same compound?
A: Its invasion inhibition rate is 70.03%.

Q: And the invasion inhibition rate [12]?
A: The invasion inhibition rate was 63.48%.

Q: What about the invasion inhibition rate [13] of the same compound?
A: Its invasion inhibition rate is 68.41%.

Q: What about the invasion inhibition rate [14] of the same compound?
A: Its invasion inhibition rate is 67.40%.

Q: And the invasion inhibition rate [15]?
A: Its invasion inhibition rate is 69.31%.

Q: What about the invasion inhibition rate [16] of the same compound?
A: Its invasion inhibition rate is 72.16%.

Q: For `CC(=O)O[C@H]1C(=O)[C@@]2(C)[C@H]([C@H](OC(=O)c3ccccc3)[C@]3(O)C[C@H](OC(=O)[C@H](O)[C@@H](NC(=O)c4ccccc4)c4ccccc4)C(C)=C1C3(C)C)[C@]1(OC(C)=O)CO[C@@H]1C[C@@H]2O` [Taxol, taxol, reference compound], which inhibition at 10 µg/mL [17] is on record?
A: The inhibition at 10 µg/mL was 85.2%.

Q: What about the inhibition at 10 µg/mL [18] of the same compound?
A: Its inhibition at 10 µg/mL is 84.3%.

Q: What about the inhibition at 10 µg/mL [19] of the same compound?
A: The inhibition at 10 µg/mL was 83.9%.

Q: What about the inhibition at 10 µg/mL [20] of the same compound?
A: The inhibition at 10 µg/mL was 81.3%.

Q: What about the inhibition at 10 µg/mL [21] of the same compound?
A: Its inhibition at 10 µg/mL is 87%.

Q: And the inhibition at 10 µg/mL [22]?
A: The inhibition at 10 µg/mL was 82.8%.

Q: And the inhibition at 10 µg/mL [23]?
A: The inhibition at 10 µg/mL was 79.2%.

Q: What about the inhibition at 10 µg/mL [24] of the same compound?
A: The inhibition at 10 µg/mL was 83.9%.
